Source: patent US8669244B2, “Cucurbitane-triterpenoid compounds, pharmaceutical composition, use and preparation method thereof” (National Taiwan University, priority 2011, dated 2014)

Assays:
[1] = molecular target: T1, GAL4-hERβ ligand binding domain (LBD) chimeric receptor (Homo sapiens, UniProt Q92731); assay: Transactivation assay, combination treatment with 1 nM E2 (ERβ); type: cell-based
T1 construct: expressed in transfected cells; host or cells: CHO-K1 (Chinese hamster cells), transient co-transfection with (UAS)4-ALP reporter plasmid
Source text: (§1) Plasmid pBKCMV containing GAL4-hERα (or ERβ) ligand binding domain (LBD) chimeric receptors and plasmid containing (UAS)4-alkaline phosphatase (ALP) […] were co-transfected into Chinese hamster cells (CHO-K1). Compounds with estrogenic activity would interact with estrogen-specific ER to induce the binding of GAL4 and upstream activation sequence (UAS)4 specifically to initiate the expression of ALP gene. Therefore, the ALP activity can be used to determine whether the samples to be assayed have the estrogenic activity.
(§2) The CHO-K1 cell purchased from the Food Industry Research and Development Institute Taiwan with an accession number of CCRC 60006 were cultivated with medium containing 10% FBS and Ham's F12 nutrient mixture (GIBCOBRL). Cells in high confluence were plated onto 96-well culture plate the day before transfection. The plate was then washed to remove the serum during the day of transfection, followed by addition of two plasmid DNA, GAL4-hER[…] and (UAS)4-ALP in the ratio of 1:1 together with Lipofectamine 2000 (GIBCOBRL) transfection agent and culture medium to form DNA-liposome complex for 5 hours. The sample to be assayed was added into the medium of transfected cells and cultivated for two days. The medium was aliquoted for ALP assay using 4-Nitrophenul phosphate disodium salt hexahydrate (pNPP) as the colorimetric substrate for alkaline phosphatase, and reading the absorbance of 405 nm.

[2] = molecular target: T1, GAL4-hERβ ligand binding domain (LBD) chimeric receptor; assay: Transactivation assay for estrogen receptor, ALP reporter, compound alone (ERβ); type: cell-based; conditions: for EC50: compound alone; for Maximum activation for ERβ: concentration not given; for Activation of ERβ: under tested condition (maximum tolerable 2 μM)
Source text: (§3) 1. Estrogen Activity Analysis: Transactivation Assay for Estrogen Receptor
as §1, §2

[3] = molecular target: T2, GAL4-hERα ligand binding domain (LBD) chimeric receptor (Homo sapiens, UniProt P03372); assay: Transactivation assay for estrogen receptor, ALP reporter, compound alone (ERα); type: cell-based; conditions: for Maximum activation for ERα: concentration not given; for Activation of ERα: under tested condition (maximum tolerable 2 μM)
T2 construct: expressed in transfected cells; host or cells: CHO-K1 (Chinese hamster cells), transient co-transfection with (UAS)4-ALP reporter plasmid
T2 sequence (P03372 311-547 limits assumed): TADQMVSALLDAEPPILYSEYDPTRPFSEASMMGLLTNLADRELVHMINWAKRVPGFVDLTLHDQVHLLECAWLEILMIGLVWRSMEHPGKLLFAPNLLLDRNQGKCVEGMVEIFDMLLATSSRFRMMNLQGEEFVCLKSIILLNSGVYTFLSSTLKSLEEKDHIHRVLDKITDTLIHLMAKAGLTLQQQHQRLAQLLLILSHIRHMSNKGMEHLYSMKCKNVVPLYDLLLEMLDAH
Source text: as §3, §1
Cells in high confluence were plated onto 96-well culture plate the day before transfection. The plate was then washed to remove the serum during the day of transfection, followed by addition of two plasmid DNA, GAL4-hER[…] and (UAS)4-ALP in the ratio of 1:1 together with Lipofectamine 2000 (GIBCOBRL) transfection agent and culture medium to form DNA-liposome complex for 5 hours. The sample to be assayed was added into the medium of transfected cells and cultivated for two days.

[4] = molecular target: T2, GAL4-hERα ligand binding domain (LBD) chimeric receptor; assay: Transactivation assay, combination treatment with 1 nM E2 (ERα); type: cell-based
Source text: as §1, §2

CHO-K1 cells = assay: Cytotoxicity to the cells of the transactivation assay; type: cell-based, Chinese hamster

T1 sequence (Q92731 264-498 limits assumed, change not shown): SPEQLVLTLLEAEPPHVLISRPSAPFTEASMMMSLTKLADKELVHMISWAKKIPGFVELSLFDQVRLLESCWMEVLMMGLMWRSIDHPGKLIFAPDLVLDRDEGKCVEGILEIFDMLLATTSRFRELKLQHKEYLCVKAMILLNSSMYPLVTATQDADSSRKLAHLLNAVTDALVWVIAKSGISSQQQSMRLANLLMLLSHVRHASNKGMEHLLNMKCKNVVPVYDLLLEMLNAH

Which results are given for CC1=C[C@H](O)CC(C)(C)[C@H]1/C=C/C(C)=C/C=C/C(C)=C/C=C/C=C(C)/C=C/C=C(C)/C=C/C1=C(C)C[C@@H](O)CC1(C)C [lutein, Lutein]?
Maximum activation of ERβ with E2 ([1]; lutein at 18 (unit not given) + 1 nM E2): 166 % that of E2; Maximum activation of ERβ ([2]; at 35 μM): 26 % that of E2; EC50 [2]: 11.8 µM

How did the “Maximum activation of ERα” value ([3]; at 102 (unit not given)) turn out when CC1(C)C[C@H](O)C[C@@]2(C)OC(=O)C=C12 [loliolide, Loliolide] was run?
The value was 24 % of E2.

And the EC50 ([3]; compound alone)?
Its EC50 is 14.2 µM.

And the “Maximum activation of ERβ with E2” value ([1]; 51 μM + 1 nM E2)?
Its value is 145 % of E2.

What about the “Maximum activation of ERβ” value ([2]; at 51 μM) of the same compound?
The value was 20 % of E2.

What about the EC50 [2] of the same compound?
Its EC50 is 16.7 µM.

What about the “Maximum activation of ERα with E2” value ([4]; 102 μM + 1 nM E2) of the same compound?
The value was 146 % of E2.

For CC(C)=C/C=C/[C@@H](C)[C@H]1CC[C@@]2(C)[C@@H]3C=C[C@@]45OC(=O)[C@]3(CC[C@]12C)C4CC[C@H](O)C5(C)C (stereo partly drawn) [compound 1, cucurbita-6,22(E),24-trien-3β-ol-19,5β-olide], which “Maximum activation for ERα” value ([3]; relative to 1 nM E2) is on record?
The value was 12 % of E2.

And the “Maximum activation for ERβ” value ([2]; relative to 1 nM E2)?
Its value is 10 % of E2.

What does the source list for CC(C)=C/C=C/[C@@H](C)[C@H]1CC[C@@]2(C)[C@@H]3C=CC4=C(CC[C@H](O)C4(C)C)[C@]3(C=O)CC[C@]12C [compound 3, 3β-hydroxycucurbita-5(10),6,22(E),24-tetraen-19-al]?
Activation of ERα [3]: no significant activation; ALP activity, E2-induced ERβ activation remaining (E2 = 100%) ([1]; 2 μM compound + 1 nM E2): 73%; Cytotoxicity: maximum tolerable concentration for cells (CHO-K1 cells): 2 µM; Activation of ERβ [2]: no significant activation; ALP activity, E2-induced ERα activation remaining (E2 = 100%) ([4]; 2 μM compound + 1 nM E2): 48%

For COC(OC)[C@@]12CC[C@]3(C)[C@@H]([C@H](C)/C=C/C=C(C)C)CC[C@@]3(C)[C@@H]1C=CC1=C2CC[C@H](O)C1(C)C [compound 4, 19-dimethoxycucurbita-5(10),6,22(E),24-tetraen-3β-ol], which “Activation of ERα” value [3] is on record?
Its value is “no significant activation”.

And the “Cytotoxicity: maximum tolerable concentration for cells” value (CHO-K1 cells)?
Its value is 2 µM.

And the “Activation of ERβ” value [2]?
The value was “no significant activation”.

With CC(C)=C/C=C/[C@@H](C)[C@H]1CC[C@@]2(C)[C@@H]3C=C[C@@]45OC(O)[C@]3(CC[C@]12C)C4CC[C@H](O)C5(C)C (stereo partly drawn) [compound 2, 5β,19-epoxycucurbita-6,22(E),24-trien-3β,19-diol] as the compound, how does the “Maximum activation for ERα” value ([3]; relative to 1 nM E2) read?
Its value is 15 % of E2.

And the “Maximum activation for ERβ” value ([2]; relative to 1 nM E2)?
Its value is 8 % of E2.

Which results are given for CC(C)=C/C=C/[C@@H](C)[C@H]1CC[C@@]2(C)c3ccc4c(c3CC[C@]12C)CC[C@H](O)C4(C)C [compound 5, 19-nor-cucurbita-5(10),6,8,22(E),24-pentaen-3β-ol]?
Maximum activation for ERα ([3]; relative to 1 nM E2): 15 % of E2; E2 induced activation of ERβ remaining ([1]; 1 μM compound + 1 nM E2, p<0.05): 83 % of E2; Maximum activation for ERβ ([2]; relative to 1 nM E2): 9 % of E2

For CC(C)=CC(O)C[C@@H](C)[C@H]1CC[C@@]2(C)[C@@H]3C=C[C@@]45OC[C@]3(CC[C@]12C)C4CC[C@H](O)C5(C)C (single isomer, unassigned) [compound 6, 5β,19-epoxycucurbita-6,24-dien-3β,23ξ-diol], which “Maximum activation effect for ERα” value ([3]; at 22 μM, relative to 1 nM E2) is on record?
Its value is 30 % of E2.

What about the “ALP activity, E2-induced ERβ activation remaining (E2 = 100%)” value ([1]; 22 μM compound + 1 nM E2) of the same compound?
Its value is 24%.

And the “Maximum activation effect for ERβ” value ([2]; at 22 μM, relative to 1 nM E2)?
The value was 23 % of E2.

And the “ALP activity, E2-induced ERα activation remaining (E2 = 100%)” value ([4]; 22 μM compound + 1 nM E2)?
Its value is 10%.
